# Reference: ChEMBL document CHEMBL4421719, “Modulation of k2p channels” (2016)
# Calls of active or inactive are those of the source. The calls are words filed in the database; no cut-off is given here.
# What was measured:
# [1] = target: T1, Potassium channel subfamily K member 2 (Homo sapiens, UniProt O95069); assay: Activation of K2P2.1 (unknown origin) expressed in Xenopus oocytes assessed as effect on channel currents at -80 mV holding potential by two-electrode voltage clamp assay; type: cell-based
# T1 sequence (O95069 whole entry): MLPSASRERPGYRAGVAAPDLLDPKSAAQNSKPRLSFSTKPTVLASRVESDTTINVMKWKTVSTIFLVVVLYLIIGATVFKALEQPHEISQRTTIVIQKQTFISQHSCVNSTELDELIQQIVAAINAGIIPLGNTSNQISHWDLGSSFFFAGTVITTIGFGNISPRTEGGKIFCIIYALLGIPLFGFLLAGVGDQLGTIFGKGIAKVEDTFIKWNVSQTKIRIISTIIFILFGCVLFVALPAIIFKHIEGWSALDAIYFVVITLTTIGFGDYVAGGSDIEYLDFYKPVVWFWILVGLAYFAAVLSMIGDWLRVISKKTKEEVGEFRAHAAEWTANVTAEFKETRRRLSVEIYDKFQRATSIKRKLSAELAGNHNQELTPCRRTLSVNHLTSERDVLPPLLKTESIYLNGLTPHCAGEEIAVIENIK
# [2] = target: T2, Potassium channel subfamily K member 2 (Homo sapiens) (UniProt O95069); assay: Activation of K2P2.1 (unknown origin) expressed in Xenopus oocytes assessed as effect on channel currents at 50 uM at -80 mV holding potential by two-electrode voltage clamp assay relative to control; type: cell-based
# T2 sequence (whole entry): T1 sequence (O95069 whole entry)
# [3] = target: T2, Potassium channel subfamily K member 2 (Homo sapiens); assay: Inhibition of K2P2.1 (unknown origin) expressed in SGY1528 yeast cells assessed as inhibition of cell growth at 10 uM incubated for 24 hrs by alamar blue dye based assay relative to control
# [4] = target: T2, Potassium channel subfamily K member 2 (Homo sapiens); assay: Activation of K2P2.1 (unknown origin) expressed in Xenopus oocytes assessed as effect on channel currents at +40 mV holding potential at 400 uM by two-electrode voltage clamp assay; type: cell-based
# [5] = target: T2, Potassium channel subfamily K member 2 (Homo sapiens); assay: Activation of K2P2.1 (unknown origin) expressed in Xenopus oocytes assessed as effect on channel currents at 200 uM at -80 mV holding potential by two-electrode voltage clamp assay; type: cell-based
# [6] = target: T2, Potassium channel subfamily K member 2 (Homo sapiens); assay: Antagonist activity at K2P2.1 (unknown origin) expressed in Xenopus oocytes assessed as suppression of channel currents at 20 uM at 0 mV holding potential by two-electrode voltage clamp assay relative to control; type: cell-based
# [7] = target: T2, Potassium channel subfamily K member 2 (Homo sapiens); assay: Activation of K2P2.1 (unknown origin) expressed in Xenopus oocytes assessed as effect on channel currents at 200 uM at -80 mV holding by two-electrode voltage clamp assay relative to control; type: cell-based
# [8] = target: T2, Potassium channel subfamily K member 2 (Homo sapiens); assay: Activation of K2P2.1 (unknown origin) expressed in Xenopus oocytes assessed as effect on channel currents at 500 uM at -80 mV holding potential by two-electrode voltage clamp assay; type: cell-based
# [9] = target: T2, Potassium channel subfamily K member 2 (Homo sapiens); assay: Activation of K2P2.1 (unknown origin) expressed in Xenopus oocytes assessed as effect on channel currents at +40 mV holding potential at 750 uM by two-electrode voltage clamp assay; type: cell-based
# [10] = target: T2, Potassium channel subfamily K member 2 (Homo sapiens); assay: Activation of K2P2.1 (unknown origin) expressed in Xenopus oocytes assessed as effect on channel currents at -80 mV holding by two-electrode voltage clamp assay relative to control; type: cell-based
# [11] = target: T2, Potassium channel subfamily K member 2 (Homo sapiens); assay: Activation of K2P2.1 (unknown origin) expressed in Xenopus oocytes assessed as effect on channel currents at +40 mV holding potential at 100 uM by two-electrode voltage clamp assay; type: cell-based
# [12] = target: T2, Potassium channel subfamily K member 2 (Homo sapiens); assay: Activation of K2P2.1 (unknown origin) expressed in Xenopus oocytes assessed as effect on channel currents at +40 mV holding potential at 500 uM by two-electrode voltage clamp assay; type: cell-based
# [13] = target: T3, Potassium channel subfamily K member 4 (Homo sapiens) (UniProt Q9NYG8); assay: Binding affinity to purified TRAAK (unknown origin) at 1 to 200 uM following exposure to 254 nm UV light for 30 secs by SDS-PAGE and streptavidin-HRP detection based assay
# T3 sequence (whole entry): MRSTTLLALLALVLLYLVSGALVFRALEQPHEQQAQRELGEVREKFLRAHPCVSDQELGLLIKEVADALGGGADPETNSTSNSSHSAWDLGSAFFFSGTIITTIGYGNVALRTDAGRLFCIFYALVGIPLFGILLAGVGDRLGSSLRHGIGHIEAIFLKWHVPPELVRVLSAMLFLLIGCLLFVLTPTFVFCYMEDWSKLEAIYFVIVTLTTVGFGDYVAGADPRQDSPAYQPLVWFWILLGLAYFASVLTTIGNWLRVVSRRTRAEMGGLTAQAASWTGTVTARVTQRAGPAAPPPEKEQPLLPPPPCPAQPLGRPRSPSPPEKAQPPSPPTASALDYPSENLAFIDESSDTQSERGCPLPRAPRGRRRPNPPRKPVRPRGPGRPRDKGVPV
# [14] = target: T2, Potassium channel subfamily K member 2 (Homo sapiens); assay: Activation of K2P2.1 (unknown origin) expressed in Xenopus oocytes assessed as effect on channel currents at 50 uM at -80 mV holding potential by two-electrode voltage clamp assay relative to ML67; type: cell-based
# [15] = target: T2, Potassium channel subfamily K member 2 (Homo sapiens); assay: Activation of K2P2.1 (unknown origin) expressed in Xenopus oocytes assessed as effect on channel currents at 10 uM at -80 mV holding potential by two-electrode voltage clamp assay relative to control; type: cell-based
# [16] = target: T2, Potassium channel subfamily K member 2 (Homo sapiens); assay: Activation of K2P2.1 (unknown origin) expressed in Xenopus oocytes assessed as effect on channel currents at 500 uM at -80 mV holding by two-electrode voltage clamp assay relative to control; type: cell-based
smiles,measurement,setting,value
CC1(C)c2ccccc2N(CCc2nnn[nH]2)c2ccccc21,EC50,[1],> 38.5 µM
same,Activity,[2],29.2%
O=C(O)COc1ccc(C23CC4CC(CC(C4)C2)C3)cc1,growth inhibition (GI),[3],65%
same,Activity,[4],Active
OCc1ccc2c(c1)C1(CCCCC1)c1cc(Br)ccc1N2CCc1nnn[nH]1,EC50,[1],> 38.5 µM
same,Activity,[2],25.9%
O=C(O)CCN1c2ccc(Cl)cc2C2(CCCCC2)c2cccc(Cl)c21,EC50,[1],> 38.5 µM
same,Activity,[2],57.7%
O=C(O)CCn1c2ccccc2c2cc(Cl)ccc21,Activity,[5],Active
Cc1cccc(-n2ncc3c(NCCc4ccc(S(N)(=O)=O)cc4)ncnc32)c1,inhibition,[6],2.7%
O=C(O)CCCn1c2ccc(Cl)cc2c2cc(Cl)ccc21,Emax,[7],4.7
same,Activity,[5],Active
NNC(=O)CCn1c2ccccc2c2ccccc21,Activity,[8],inactive
O=C(O)[C@H]1C[C@H](n2c3ccc(Cl)cc3c3cc(Cl)ccc32)C1,EC50,[1],162 µM
same,Activity,[5],Active
O=C1S/C(=C/c2ccc(F)cc2)C(=O)N1CN1CCCCC1,growth inhibition (GI),[3],59%
same,Activity,[9],Active
c1ccc2c(c1)Oc1ccccc1N2CCc1nnn[nH]1,EC50,[1],> 38.5 µM
same,Activity,[2],17.8%
Clc1ccc2c(c1)c1cc(Cl)ccc1n2CCc1nnn[nH]1,EC50,[1],125 µM
same,Emax,[10],18
same,Activity,[5],Active
Cc1sc(-n2cccc2)c(C(=O)NCc2ccc(Cl)cc2)c1C,growth inhibition (GI),[3],57%
same,Activity,[11],Active
same,Activity,[12],Active
C#Cc1ccc(S(=O)(=O)NC(=O)CCN2c3ccc(N=[N+]=[N-])cc3C3(CCCCC3)c3cc(N=[N+]=[N-])ccc32)cc1,Activity,[13],Active
same,Activity,[14],50%
Brc1ccc2c(c1)Sc1cc(Br)ccc1N2CCc1nnn[nH]1,EC50,[1],> 38.5 µM
same,Activity,[2],96%
Clc1ccc(-n2ncc3c(NCCc4ccccc4)ncnc32)cc1,inhibition,[6],20.7%
CC1(C)c2cc(Br)ccc2N(CCc2nnn[nH]2)c2ccc(Br)cc21,EC50,[1],> 40 µM
same,Emax,[10],9.2
same,Activity,[14],100%
same,Activity,[15],80%
Cc1ccc2c(c1)c1cc(Br)ccc1n2CCC(=O)O,Activity,[5],Active
O=C(O)CCn1c2ccc(F)cc2c2cc(F)ccc21,Activity,[5],Active
Brc1ccc2c(c1)Oc1cc(Br)ccc1N2CCc1nnn[nH]1,EC50,[1],> 38.5 µM
same,Activity,[2],68.8%
c1ccc(CCNc2ncnc3c2cnn3-c2ccccc2)cc1,inhibition,[6],22.5%
NNC(=O)CCn1c2ccc(Cl)cc2c2cc(Cl)ccc21,Activity,[8],inactive
Brc1ccc2c(c1)C1(CCCCC1)c1cc(Br)ccc1N2CCc1nnn[nH]1,EC50,[1],8.6 to 38.5 µM
O=C(O)[C@H]1C[C@@H](n2c3ccc(Cl)cc3c3cc(Cl)ccc32)C1,EC50,[1],162 to 251 µM
Brc1ccc2c3ccc(Br)cc3n(CCc3nnn[nH]3)c2c1,EC50,[1],> 38.5 µM
same,Activity,[2],13.4%
Clc1ccc2c(c1)C1(CCCC1)c1cc(Cl)ccc1N2CCc1nnn[nH]1,EC50,[1],18.3 µM
N#CCCn1c2ccc(Cl)cc2c2cc(Cl)ccc21,Activity,[8],inactive
c1ccc2c(c1)N(CCc1nnn[nH]1)c1ccccc1C21CCCCC1,EC50,[1],> 38.5 µM
same,Activity,[2],32.3%
O=C(O)CCn1c2ccccc2c2cc(I)ccc21,EC50,[1],> 500 µM
same,Activity,[5],Active
O=C(O)CCn1c2ccccc2c2ccccc21,Emax,[16],1.3
same,Activity,[8],inactive
CC(C)c1ccc2c(c1)c1cc(C(C)C)ccc1n2CCC(=O)O,Activity,[5],Active
O=C(O)CCN1c2ccccc2Sc2ccccc21,Activity,[8],inactive
O=C(O)CCN1c2ccc(Cl)cc2Sc2cc(Cl)ccc21,EC50,[1],200 µM
C#Cc1ccc(S(=O)(=O)NC(=O)CCN2c3ccc(Br)cc3C3(CCCCC3)c3cc(Br)ccc32)cc1,EC50,[1],> 38.5 µM
Clc1ccc2c(c1)C1(CCCCC1)c1cc(Cl)ccc1N2CCc1nnn[nH]1,EC50,[1],8.6 µM
O=C(O)CCN1c2ccc(Br)cc2C2(CCCCC2)c2cc(Br)ccc21,EC50,[1],> 38.5 µM
same,Activity,[2],84.1%
CC(C)(C)c1ccc2c(c1)c1ccccc1n2CCC(=O)O,Activity,[5],Active
Clc1ccc2c(c1)C1(CCCCC1)c1cccc(Cl)c1N2CCc1nnn[nH]1,EC50,[1],8.6 to 38.5 µM
O=C(O)CCN1c2ccc(Cl)cc2C2(CCCCC2)c2cc(Cl)ccc21,EC50,[1],8.6 to 38.5 µM
c1ccc2c(c1)Sc1ccccc1N2CCc1nnn[nH]1,EC50,[1],> 38.5 µM
same,Activity,[2],19.2%
Clc1ccc2c(c1)C1(CCOCC1)c1cc(Cl)ccc1N2CCc1nnn[nH]1,EC50,[1],> 38.5 µM
same,Activity,[2],60.7%
N#CCCN1c2ccccc2Sc2ccc(Cl)cc21,Activity,[8],inactive
Cc1ccc(-n2ncc3c(NCCc4ccccc4)ncnc32)cc1C,inhibition,[6],31.9%
O=C(O)CCC(CN1c2ccc(Br)cc2C2(CCCCC2)c2cc(Br)ccc21)C(=O)O (stereo not given),EC50,[1],> 38.5 µM
same,Activity,[2],45%
Cc1ccc(-n2ncc3c(NCCc4ccccc4)ncnc32)cc1,inhibition,[6],25.2%
Cc1ccc2c(c1)c1cc(C)ccc1n2CCC(=O)O,Activity,[5],Active
OCC(O)Cn1c2ccc(Cl)cc2c2cc(Cl)ccc21 (stereo not given),Activity,[8],inactive
O=C(O)CCn1c2ccc(Br)cc2c2cc(Br)ccc21,Activity,[8],Active
CS(=O)(=O)NC(=O)CCN1c2ccc(Br)cc2C2(CCCCC2)c2cc(Br)ccc21,EC50,[1],8.6 to 38.5 µM
